In patent US5968526A, “T cell epitopes of the major allergens from Dermatophagoides (house dust mite)” (Immulogic Pharamaceutical Corporation, priority 1995, dated 1999):

What was measured:
[1] = tested on: T cell cultures reactive with Der p I from house dust mite-allergic subjects; assay: secondary T cell proliferation assay, Group I (Der p I) overlapping and candidate/unique peptides; percent of T cell reactivity; format: cell-based, human; settings: patient 1733; for T cell stimulation index (S.I.): highest S.I. ≥2.0 recorded
Text: To determine whether a peptide (candidate peptide) or a combination of candidate peptides are likely to comprise a sufficient percentage of the T cell reactivity of house dust mite protein allergens, to induce T cell nonresponsiveness in a substantial percentage of a population of individuals sensitive to house dust mite allergen, an algorithm can be used. In accordance with one such algorithm, a set of overlapping peptides is produced by systematically dividing the protein allergen(s) of interest into al least two overlapping peptide regions of desired lengths (e.g., of about 12-30 amino acid residues in length, preferably not longer than about 25 amino acid residues in length with about 5-15 amino acid residues of overlap). This division into peptide regions can be arbitrary, can be made according to an algorithm, or can be wholly or partially based on regions of house dust mite Group I and/or Group II protein allergens known to comprise at least one T cell epitope. Preferably, at least 50% of the entire house dust mite protein allergen sequence and more preferably, the entire house dust mite protein allergen sequence is divided into two or more peptides. A human T cell stimulation index is determined for each of the peptides in an in vitro T cell proliferation assay as described herein for each individual tested in a population of individuals sensitive to the protein antigen. For example both WO93/08279 and WO94/24281 disclose T cell studies with overlapping peptides derived from Der p I, Der p II, Der f I and Der f II. A candidate peptide or combination of candidate peptides is selected based, at least in part, on the mean human T cell stimulation index of the candidate peptide in the set of peptides tested and the positivity index of the candidate peptide in the set of peptides tested (see, FIGS. 3 and 4). The human T cell stimulation index for the candidate peptide(s) is summed. For each individual, the human T cell stimulation index for the candidate peptide(s) is divided by the sum of the human T cells stimulation indices of the remaining peptides in the set of peptides tested to determine a percent of T cell reactivity as shown below:
Alternatively, the presence of T cell epitopes in the candidate peptide dependent on amino acids residues in an overlapping peptide located at either the N-terminus or C-terminus of the candidate peptide in the amino acid sequence of the protein antigen, but which epitopes are not present in the candidate peptide can be considered in calculating the percent of T cell reactivity in the candidate peptide by use of the following formula: [formula]
In this formula, "NT flanking peptide" refers to a peptide which comprises amino acid residues which overlap with amino acid residues located at the N-terminus of the candidate peptide in the amino acid sequence of the protein antigen from which the peptide is derived; "CT flanking peptide" refers to a peptide which comprises amino acid residues which overlap with amino acid residues located a the C-terminus of the candidate peptide in the amino acid sequence of the protein antigen from which the peptide is derived. In this calculation stimulation indices for the candidate peptide, the N-terminal flanking peptide and the C-terminal flanking peptide are added and divided by the sum total of the stimulation indices for the entire set of overlapping peptides obtain a percent of T cell reactivity for the candidate peptide. If a combination of two or more candidate peptides is selected each of which contains amino acid residues which overlap, this calculation cannot be used to determine a percent of T cell reactivity for each candidate peptide separately. However, a total percent of T cell reactivity for the combination of candidate peptides can be obtained. In this situation, the stimulation indices for all of the candidate peptides which overlap is included in the calculation. […]

[2] = tested on: T cell lines primed in vitro with Der p II; assay: T cell proliferation with fine map and modified Group II peptides (Example XIV); format: cell-based, human; settings: for T cell response, Group II peptides: FIGS. 32a-b; for positive T cell responses, modified peptides: 21 T cell lines, Der p II primed, FIG. 32a
In short: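 Bulk T cell lines primed with 30 μg/ml native Der p I or Der p II for 5-6 days, rested with IL-2/IL-4, then restimulated 3 days with peptides plus irradiated autologous EBV-B cells or PBMs. Proliferation by 16-20 h [3H]thymidine uptake; stimulation index = peptide CPM / medium CPM, averaged over responding patients.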

## DP I-23.31: modified Der p I peptide; unique peptide (DEEGVVQESYYRYVAREQSCRRPNAE)
[1]
  T cell stimulation index (S.I.): 5.7

## DP I-26.6: modified Der p I peptide; unique peptide (DEGIKDLDAFRHYDGRTIIQRDNGYE)
[1]
  T cell stimulation index (S.I.): 5.0
[1]; of total reactivity of the Der p I protein
  estimated range of T cell reactivity (% reactivity of peptide): 12.3%-24

## DP I-3: Der p I peptide (TVTPIRMQGGCGSCWAFSGVAATESAYLA)
[1]
  T cell stimulation index (S.I.): 3.9

## DP II-22: QLEAVFEANQNTKTAKIEIKASIDGLEV
[2]
  T cell response, Group II peptides: positive T cell studies

## DP I-21.2: Der p I peptide; unique peptide (SINGNAPAEIDLRQMRTVTPIRMQ)
[1]
  T cell stimulation index (S.I.): 3.6

## DP II-22.14: DKELEAVFEANQNTKTAKAE; unique peptide
[2]
  positive T cell responses, modified peptides: all 21 T cell lines responded positively
  T cell response, Group II peptides: positive T cell studies

## DP II-20.9: modified Der p II peptide; unique peptide (DQVDVKDCANHEIKKVLVPGCHGSE)
[2]
  positive T cell responses, modified peptides: all 21 T cell lines responded positively
  T cell response, Group II peptides: positive T cell studies
